Results from PMC9022229, “Induction of Paraptosis by Cyclometalated Iridium Complex-Peptide Hybrids and CGP37157 via a Mitochondrial Ca^2+ Overload Triggered by Membrane Fusion between Mitochondria and the Endoplasmic Reticulum” (Biochemistry, 2022).
Residues, ends and D or L forms follow the SMILES beside them. *: point of attachment. X1 = O=C(COc1ccc(-c2ccccn2)cc1)NCCCCCCCCN*

What was measured:
Assay type in all cases: cell-based
Jurkat cells [1] = experiment: Mitochondrial membrane potential (ΔΨm) by DilC1(5) confocal microscopy
Procedure: The mitochondrial membrane potential (ΔΨm) was measured by means of DilC1(5) (1,1′,3,3,3′,3′-hexamethylindodicarbocyanine iodide), the emission intensity of which responds to ΔΨm.[95] Jurkat cells were treated with CGP37157 (100 μM) for 1–12 h, stained with DilC1(5) (5 μM) for 30 min, and observed via confocal microscopy. […] The decrease in ΔΨm with 4 was also observed by confocal microscopy (Figure 6B).
In a 1.5 mL Eppendorf tube, Jurkat cells (2.0 × 10^5 cells) were stained with DilC1(5) (500 nM, 100 μL) in 10% FBS/RPMI 1640 medium for 30 min at 37 °C under 5% CO2, followed by the treatment with 4 (5 μM, 100 μL) in the medium for 0–60 min at 37 °C under 5% CO2. For CGP37157, Jurkat cells (2.0 × 10^5 cells) were treated with CGP37157 (100 μM, 100 μL) in 10% FBS/RPMI 1640 medium for 0–12 h at 37 °C under 5% CO2, followed by the treatment with DilC1(5) (500 nM, 100 μL) in PBS. The cells were washed with PBS and observed by confocal microscopy (Fluoview, FV-1000, Olympus) using a Greiner CELLview dish (35 mm × 10 mm). Excitation at 405 nm and emission from 470 to 520 nm were used for 4. Excitation at 635 nm and emission from 650 to 750 nm were used for DilC1(5). The exposure time was 20 μs/pixel.

Jurkat cells [2] = experiment: Cytosolic Ca2+ by flow cytometry with Rhod-4
Procedure: (§1) Other characteristic phenomena of paraptosis such as a mitochondrial Ca^2+ overload and loss of mitochondrial membrane potential (ΔΨm) induced by CGP37157 were also examined. Intracellular Ca^2+ concentrations were measured by flow cytometry using red-emitting Ca^2+ probes, Rhod-2 (a mitochondrial Ca^2+ probe) and Rhod-4 (a cytosolic Ca^2+ probe). Jurkat cells were stained with Rhod-2/AM or Rhod-4/AM (at 5 μM) and then treated with CGP37157 (100 μM) or 4 (5 μM) for a given period of incubation, immediately after which the emission intensity of Rhod-2 and Rhod-4 was measured by flow cytometry. […]
(§2) In a 1.5 mL Eppendorf tube, Jurkat cells (2.0 × 10^5 cells) were incubated in the presence of Rhod-2/AM (5 μM, 100 μL) or Rhod-4/AM (5 μM, 100 μL) in 10% FBS/RPMI 1640 medium for 30 min at 37 °C under 5% CO2 and then treated with 4 (5 μM, 0–30 min) or CGP37157 (100 μM, 0–6 h) in 10% FBS/RPMI 1640 medium (100 μL) for 30 min at 37 °C under 5% CO2. Immediately after the treatment, 10% FBS/RPMI 1640 medium (300 μL) was added to the cells and the samples were analyzed on a flow cytometer (FACSCalibur cytometer, Becton). The data were analyzed on FlowJo software (FlowJo, LCC).

mitofusin 2 (MFN2) = experiment: Western blot analysis of MFN2 in Jurkat cells
Procedure: In a 1.5 mL Eppendorf tube, Jurkat cells (1.0 × 10^6 cells) were incubated in the presence of 4 ([…]), CGP37157 (100 μM for 0–24 h or 0–100 μM for 12 h), and celastrol (0–10 μM for 24 h or 1 μM for 0–24 h) at 37 °C under 5% CO2. After the cells had been washed twice with PBS, the proteins were extracted by using RIPA buffer (Nacalai Tesque) and quantified using a Pierce BCA Protein Assay Kit (Thermo Scientific). Proteins (7.5 μg/well) for MFNs and DRP1 and proteins (5.0 μg/well) for GAPDH were used for sodium dodecyl sulfate–polyacrylamide gel electrophoresis (SDS–PAGE) (7.5% for MFNs and DRP1 and 10% for GAPDH) (Bio-Rad). After SDS–PAGE, the proteins were transferred to a polyvinylidene fluoride membrane (Merck Millipore) by using a semi dry blotter (Bio-Rad). The membrane was blocked with Blocking One solution (Nacalai Tesque) for 30 min at room temperature. After being blocked, the membrane was washed three times with 1× TBST and treated with primary antibodies overnight (at a dilution of 1/1000 for MFNs and DRP1 or 1/2000 for GAPDH) in a signal enhancer HIKARI-solution A (Nacalai Tesque). The membrane was washed three times with 1× TBST and treated with the anti-mouse or anti-rabbit IgG HRP-conjugated secondary antibody (at a dilution of 1/4000 for MFNs and DRP1 or 1/10000 for GAPDH) in 1× TBST for 60 min at room temperature. The protein signal was spotted with a Chemi-Lumi One Ultra solution (Nacalai Tesque) using the ChemiDoc MP system (Bio-Rad). […]

Jurkat cells [3] = experiment: Mitochondrial Ca2+ by flow cytometry with Rhod-2
Procedure: as §1, §2

| SMILES | Emission of DilC1(5) (ΔΨm) (Jurkat cells [1]; CGP37157 100 μM, 6 h) | Emission of Rhod-4 (cytosolic Ca2+) (Jurkat cells [2]; CGP37157 100 μM, 1–6 h) | Expression level of MFN2 (Figure 11B) (mitofusin 2 (MFN2); CGP37157 100 μM, 1–6 h) | MFN2 band intensity relative to absence of compound (mitofusin 2 (MFN2); Figure S8B, CGP37157 10 µM, 12 h) | MFN2 band intensity relative to absence of compound (mitofusin 2 (MFN2); Figure S8B, CGP37157 20 µM, 12 h) | MFN2 band intensity relative to absence of compound (mitofusin 2 (MFN2); Figure S8B, CGP37157 50 µM, 12 h) | MFN2 band intensity relative to absence of compound (mitofusin 2 (MFN2); Figure S8B, CGP37157 80 µM, 12 h) | MFN2 band intensity relative to absence of compound (mitofusin 2 (MFN2); Figure S8B, CGP37157 100 µM, 12 h) | Emission intensity of Rhod-2 (mitochondrial Ca2+) (Jurkat cells [3]; CGP37157 100 μM, 6 h after treatment) | Emission of DilC1(5) (ΔΨm) (Jurkat cells [1]; 4 at 5 μM, 20 min after treatment) | Emission of Rhod-4 (cytosolic Ca2+) (Jurkat cells [2]; 4 at 5 μM, 10–30 min) | Expression level of MFN2 (Figure 11A) (mitofusin 2 (MFN2); 4 at 5 μM, 30 min to 1 h) | MFN2 band intensity relative to absence of compound (mitofusin 2 (MFN2); Figure S8A, 4 at 1 µM, 1 h per legend) | MFN2 band intensity relative to absence of compound (mitofusin 2 (MFN2); Figure S8A, 4 at 2.5 µM, 1 h per legend) | MFN2 band intensity relative to absence of compound (mitofusin 2 (MFN2); Figure S8A, 4 at 5 µM, 1 h per legend) | MFN2 band intensity relative to absence of compound (mitofusin 2 (MFN2); Figure S8A, 4 at 10 µM, 1 h per legend) | MFN2 band intensity relative to absence of compound (mitofusin 2 (MFN2); Figure S8A, 4 at 20 µM, 1 h per legend) | Emission intensity of Rhod-2 (mitochondrial Ca2+) (Jurkat cells [3]; 4 at 5 μM, 10–30 min after treatment) |
| --- | --- | --- | --- | --- | --- | --- | --- | --- | --- | --- | --- | --- | --- | --- | --- | --- | --- | --- |
| O=C1CSC(c2ccccc2Cl)c2cc(Cl)ccc2N1 (stereo not drawn) [CGP37157] | quenched | small emission enhancement | weakly changed | 1.1 | 1.6 | 1.4 | 1.2 | 0.95 | enhanced |  |  |  |  |  |  |  |  |  |
| NCCCC[C@H](NC(=O)[C@H](CCCCN)NC(=O)[C@@H](N)CCCCN)C(=O)NCC(=O)NCC(=O)NCCCCCCCCNC(=O)COc1ccc(-c2ccccn2)cc1 [compound 4] (H-KKKGG-X1) |  |  |  |  |  |  |  |  |  | decrease in emission intensity | small emission enhancement | weakly changed | 1.3 | 1.3 | 1.4 | 1.4 | 1.3 | enhanced |
